Results published in ChEMBL document CHEMBL4507260 (2021).

Key:
Conditions in all cases: Compound concentration 1000.0 nM
[1] = molecular target: Epidermal growth factor receptor (Homo sapiens) (UniProt P00533)
[2] = molecular target: G protein-coupled receptor kinase 4 (Homo sapiens) (UniProt P32298)
[3] = molecular target: Serine/threonine-protein kinase N1 (Homo sapiens) (UniProt Q16512)
[4] = molecular target: G protein-coupled receptor kinase 3 (Homo sapiens) (UniProt P35626)
[5] = molecular target: Non-receptor tyrosine-protein kinase TYK2 (Homo sapiens) (UniProt P29597)
Chain of Non-receptor tyrosine-protein kinase TYK2 (Homo sapiens) (P29597 whole entry): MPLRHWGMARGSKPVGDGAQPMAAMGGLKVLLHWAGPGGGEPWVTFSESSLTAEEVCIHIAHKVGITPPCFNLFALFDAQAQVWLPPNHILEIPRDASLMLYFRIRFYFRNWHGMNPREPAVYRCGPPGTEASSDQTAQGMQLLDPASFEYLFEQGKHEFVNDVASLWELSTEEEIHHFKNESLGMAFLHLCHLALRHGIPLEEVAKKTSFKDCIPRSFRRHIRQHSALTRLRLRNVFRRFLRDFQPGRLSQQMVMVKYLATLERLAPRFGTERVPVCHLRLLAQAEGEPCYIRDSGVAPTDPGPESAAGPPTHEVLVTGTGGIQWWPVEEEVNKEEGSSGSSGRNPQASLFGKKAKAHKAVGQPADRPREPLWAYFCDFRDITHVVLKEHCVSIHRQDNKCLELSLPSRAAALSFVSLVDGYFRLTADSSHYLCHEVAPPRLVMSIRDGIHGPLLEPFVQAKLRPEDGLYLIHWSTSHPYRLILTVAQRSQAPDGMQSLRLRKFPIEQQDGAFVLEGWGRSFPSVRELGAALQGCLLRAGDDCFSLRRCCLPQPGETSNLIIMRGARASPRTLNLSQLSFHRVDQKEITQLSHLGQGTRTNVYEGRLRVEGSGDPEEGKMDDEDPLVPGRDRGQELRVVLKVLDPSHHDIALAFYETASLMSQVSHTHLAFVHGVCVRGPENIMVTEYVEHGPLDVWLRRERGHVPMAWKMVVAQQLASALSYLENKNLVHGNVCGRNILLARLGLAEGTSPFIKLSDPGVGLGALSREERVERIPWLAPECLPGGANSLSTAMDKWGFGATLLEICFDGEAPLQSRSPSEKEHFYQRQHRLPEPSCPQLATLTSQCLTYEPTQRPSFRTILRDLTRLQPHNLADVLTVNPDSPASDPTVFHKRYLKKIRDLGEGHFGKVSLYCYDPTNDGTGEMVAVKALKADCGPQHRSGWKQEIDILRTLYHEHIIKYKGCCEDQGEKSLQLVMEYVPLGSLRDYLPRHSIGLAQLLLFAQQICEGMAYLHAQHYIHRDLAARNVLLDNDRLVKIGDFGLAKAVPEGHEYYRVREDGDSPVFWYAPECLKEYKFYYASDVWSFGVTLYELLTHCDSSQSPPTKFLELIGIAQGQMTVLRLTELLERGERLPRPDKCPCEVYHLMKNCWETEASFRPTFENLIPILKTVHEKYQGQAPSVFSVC

[6] = molecular target: Myosin-IIIa (Homo sapiens) (UniProt Q8NEV4)
[7] = molecular target: LIM domain kinase 2 (Homo sapiens) (UniProt P53671)
[8] = system: Tyrosine-protein kinase ABL1 (Homo sapiens), P00519 [F317I]
[9] = molecular target: Uncharacterized serine/threonine-protein kinase SBK3 (Homo sapiens) (UniProt P0C264)
[10] = molecular target: Ribosomal protein S6 kinase alpha-3 (Homo sapiens) (UniProt P51812)
[11] = molecular target: Wee1-like protein kinase 2 (Homo sapiens) (UniProt P0C1S8)
[12] = molecular target: Serine/threonine-protein kinase tousled-like 1 (Homo sapiens) (UniProt Q9UKI8)
[13] = molecular target: Protein-tyrosine kinase 2-beta (Homo sapiens) (UniProt Q14289)
[14] = molecular target: Proto-oncogene tyrosine-protein kinase receptor Ret (Homo sapiens) (UniProt P07949)
[15] = system: Tyrosine-protein kinase ABL1 (Homo sapiens), P00519 [Y253F]
[16] = molecular target: Dual specificity mitogen-activated protein kinase kinase 7 (Homo sapiens) (UniProt O14733)
Chain of Dual specificity mitogen-activated protein kinase kinase 7 (Homo sapiens) (O14733 whole entry): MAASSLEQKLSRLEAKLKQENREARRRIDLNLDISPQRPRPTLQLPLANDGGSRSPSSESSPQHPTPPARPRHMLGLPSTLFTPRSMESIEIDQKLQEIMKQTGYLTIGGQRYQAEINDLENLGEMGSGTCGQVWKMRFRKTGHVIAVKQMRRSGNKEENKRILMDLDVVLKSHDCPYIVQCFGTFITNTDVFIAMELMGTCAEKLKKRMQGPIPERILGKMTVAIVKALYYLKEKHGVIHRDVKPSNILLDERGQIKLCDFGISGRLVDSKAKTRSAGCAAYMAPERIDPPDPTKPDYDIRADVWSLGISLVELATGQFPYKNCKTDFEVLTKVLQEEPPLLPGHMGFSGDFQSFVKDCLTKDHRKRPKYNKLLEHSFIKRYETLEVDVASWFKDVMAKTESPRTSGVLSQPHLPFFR

[17] = molecular target: Mitogen-activated protein kinase 4 (Homo sapiens) (UniProt P31152)
[18] = molecular target: Serine/threonine-protein kinase 32C (Homo sapiens) (UniProt Q86UX6)
[19] = molecular target: cAMP-dependent protein kinase catalytic subunit alpha (Homo sapiens) (UniProt P17612)
[20] = molecular target: Glycogen synthase kinase-3 beta (Homo sapiens) (UniProt P49841)
[21] = molecular target: Serine/threonine-protein kinase ULK3 (Homo sapiens) (UniProt Q6PHR2)
Chain of Serine/threonine-protein kinase ULK3 (Homo sapiens) (Q6PHR2 whole entry): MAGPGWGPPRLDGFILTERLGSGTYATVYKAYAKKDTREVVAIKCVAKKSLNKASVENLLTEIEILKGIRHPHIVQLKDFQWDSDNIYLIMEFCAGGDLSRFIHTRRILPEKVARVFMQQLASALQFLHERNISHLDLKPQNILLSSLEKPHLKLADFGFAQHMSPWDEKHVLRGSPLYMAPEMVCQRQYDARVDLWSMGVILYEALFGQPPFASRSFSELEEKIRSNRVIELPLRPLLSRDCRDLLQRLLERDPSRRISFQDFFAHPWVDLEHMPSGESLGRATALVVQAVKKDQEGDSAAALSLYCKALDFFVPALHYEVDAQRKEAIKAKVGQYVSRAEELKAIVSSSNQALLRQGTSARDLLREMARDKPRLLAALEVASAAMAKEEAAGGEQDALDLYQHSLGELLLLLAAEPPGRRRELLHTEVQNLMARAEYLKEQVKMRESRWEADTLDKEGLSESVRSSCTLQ

[22] = molecular target: MAP kinase-interacting serine/threonine-protein kinase 1 (Homo sapiens) (UniProt Q9BUB5)
[23] = molecular target: Serine/threonine-protein kinase D2 (Homo sapiens) (UniProt Q9BZL6)
Chain of Serine/threonine-protein kinase D2 (Homo sapiens) (Q9BZL6 whole entry): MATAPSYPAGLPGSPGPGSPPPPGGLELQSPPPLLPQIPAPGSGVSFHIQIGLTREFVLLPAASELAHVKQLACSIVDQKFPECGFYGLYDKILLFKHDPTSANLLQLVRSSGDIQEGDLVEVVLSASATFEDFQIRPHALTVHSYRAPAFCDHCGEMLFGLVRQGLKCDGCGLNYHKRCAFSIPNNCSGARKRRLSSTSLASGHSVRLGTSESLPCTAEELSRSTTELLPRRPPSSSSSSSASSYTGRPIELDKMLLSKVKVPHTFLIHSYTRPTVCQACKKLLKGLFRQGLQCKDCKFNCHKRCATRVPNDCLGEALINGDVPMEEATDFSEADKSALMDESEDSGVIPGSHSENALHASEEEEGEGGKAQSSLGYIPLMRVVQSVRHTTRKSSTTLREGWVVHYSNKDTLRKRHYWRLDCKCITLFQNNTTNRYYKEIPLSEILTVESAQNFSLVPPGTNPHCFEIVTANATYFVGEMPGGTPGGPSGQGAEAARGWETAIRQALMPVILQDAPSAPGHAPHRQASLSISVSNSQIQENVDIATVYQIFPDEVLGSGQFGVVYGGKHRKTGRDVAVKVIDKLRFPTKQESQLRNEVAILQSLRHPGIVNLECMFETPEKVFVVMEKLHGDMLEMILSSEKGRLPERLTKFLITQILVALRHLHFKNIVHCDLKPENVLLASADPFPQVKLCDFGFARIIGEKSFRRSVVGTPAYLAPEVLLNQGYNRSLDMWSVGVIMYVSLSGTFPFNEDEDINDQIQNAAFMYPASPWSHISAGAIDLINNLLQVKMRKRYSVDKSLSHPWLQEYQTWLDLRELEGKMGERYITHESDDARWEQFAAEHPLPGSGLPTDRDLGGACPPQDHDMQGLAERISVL

[24] = molecular target: Ephrin type-A receptor 1 (Homo sapiens) (UniProt P21709)
[25] = molecular target: Mitogen-activated protein kinase kinase kinase 9 (Homo sapiens) (UniProt P80192)
[26] = system: Proto-oncogene tyrosine-protein kinase receptor Ret (Homo sapiens), P07949 [V804M]
[27] = molecular target: Mitogen-activated protein kinase 15 (Homo sapiens) (UniProt Q8TD08)
[28] = molecular target: Ephrin type-B receptor 1 (Homo sapiens) (UniProt P54762)
[29] = molecular target: Serine/threonine-protein kinase DCLK2 (Homo sapiens) (UniProt Q8N568)
Chain of Serine/threonine-protein kinase DCLK2 (Homo sapiens) (Q8N568 whole entry): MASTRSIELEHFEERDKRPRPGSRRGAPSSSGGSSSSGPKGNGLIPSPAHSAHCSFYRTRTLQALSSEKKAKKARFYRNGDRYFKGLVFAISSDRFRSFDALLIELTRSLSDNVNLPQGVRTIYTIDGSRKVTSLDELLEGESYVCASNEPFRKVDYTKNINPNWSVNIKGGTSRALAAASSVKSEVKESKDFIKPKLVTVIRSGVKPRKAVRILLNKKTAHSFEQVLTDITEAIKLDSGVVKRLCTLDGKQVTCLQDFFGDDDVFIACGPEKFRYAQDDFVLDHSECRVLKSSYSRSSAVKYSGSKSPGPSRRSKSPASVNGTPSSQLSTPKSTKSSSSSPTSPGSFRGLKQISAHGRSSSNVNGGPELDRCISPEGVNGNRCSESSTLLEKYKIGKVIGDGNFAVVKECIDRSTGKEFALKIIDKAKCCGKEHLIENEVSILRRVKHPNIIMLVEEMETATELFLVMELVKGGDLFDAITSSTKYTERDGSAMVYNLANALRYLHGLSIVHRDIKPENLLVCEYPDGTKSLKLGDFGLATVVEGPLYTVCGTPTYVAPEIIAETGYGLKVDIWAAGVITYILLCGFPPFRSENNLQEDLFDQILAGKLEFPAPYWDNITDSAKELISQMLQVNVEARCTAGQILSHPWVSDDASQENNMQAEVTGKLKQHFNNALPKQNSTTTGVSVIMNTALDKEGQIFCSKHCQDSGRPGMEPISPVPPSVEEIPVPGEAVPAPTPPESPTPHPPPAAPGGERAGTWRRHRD

[30] = molecular target: Serine/threonine-protein kinase Nek10 (Homo sapiens) (UniProt Q6ZWH5)
[31] = molecular target: Bone morphogenetic protein receptor type-1A (Homo sapiens) (UniProt P36894)
[32] = system: ALK tyrosine kinase receptor (Homo sapiens), Q9UM73 [C1156Y]
[33] = molecular target: Eukaryotic translation initiation factor 2-alpha kinase 1 (Homo sapiens) (UniProt Q9BQI3)
Chain of Eukaryotic translation initiation factor 2-alpha kinase 1 (Homo sapiens) (Q9BQI3 whole entry): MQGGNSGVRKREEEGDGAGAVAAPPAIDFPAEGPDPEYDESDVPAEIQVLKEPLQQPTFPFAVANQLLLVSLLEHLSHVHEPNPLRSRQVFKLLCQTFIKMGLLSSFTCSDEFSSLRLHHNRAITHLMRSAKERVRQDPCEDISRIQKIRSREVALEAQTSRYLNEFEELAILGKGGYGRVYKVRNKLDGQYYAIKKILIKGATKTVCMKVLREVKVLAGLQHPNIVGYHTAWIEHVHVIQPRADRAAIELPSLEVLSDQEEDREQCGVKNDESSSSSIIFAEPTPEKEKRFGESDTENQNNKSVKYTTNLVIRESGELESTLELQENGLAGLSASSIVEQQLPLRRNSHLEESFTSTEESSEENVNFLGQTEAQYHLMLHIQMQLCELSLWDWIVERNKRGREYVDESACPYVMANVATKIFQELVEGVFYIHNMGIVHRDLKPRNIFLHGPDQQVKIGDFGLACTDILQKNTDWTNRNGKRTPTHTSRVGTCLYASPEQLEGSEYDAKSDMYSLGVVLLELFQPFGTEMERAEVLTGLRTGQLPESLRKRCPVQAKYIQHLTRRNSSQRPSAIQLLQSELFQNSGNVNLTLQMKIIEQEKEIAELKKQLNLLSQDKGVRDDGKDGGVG

[34] = molecular target: Serine/threonine-protein kinase WNK3 (Homo sapiens) (UniProt Q9BYP7)
[35] = molecular target: 5'-AMP-activated protein kinase catalytic subunit alpha-1 (Homo sapiens) (UniProt Q13131)
[36] = molecular target: Protein kinase C delta type (Homo sapiens) (UniProt Q05655)
[37] = molecular target: Ephrin type-B receptor 2 (Homo sapiens) (UniProt P29323)
[38] = molecular target: Calcium/calmodulin-dependent protein kinase type II subunit beta (Homo sapiens) (UniProt Q13554)
[39] = molecular target: Phosphatidylinositol 5-phosphate 4-kinase type-2 gamma (Homo sapiens) (UniProt Q8TBX8)
[40] = system: Phosphatidylinositol 4,5-bisphosphate 3-kinase catalytic subunit alpha isoform (Homo sapiens), P42336 [I800L]
[41] = molecular target: Serine/threonine-protein kinase 16 (Homo sapiens) (UniProt O75716)
Chain of Serine/threonine-protein kinase 16 (Homo sapiens) (O75716 whole entry): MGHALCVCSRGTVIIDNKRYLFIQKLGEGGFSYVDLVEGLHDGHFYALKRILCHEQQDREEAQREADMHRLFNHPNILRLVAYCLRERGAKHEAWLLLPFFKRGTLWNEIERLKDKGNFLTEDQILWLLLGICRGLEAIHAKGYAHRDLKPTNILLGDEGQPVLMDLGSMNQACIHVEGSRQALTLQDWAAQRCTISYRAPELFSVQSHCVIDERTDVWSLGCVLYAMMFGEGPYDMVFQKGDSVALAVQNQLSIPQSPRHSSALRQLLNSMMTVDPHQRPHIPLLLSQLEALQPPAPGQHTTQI

[42] = molecular target: Ribosomal protein S6 kinase alpha-6 (Homo sapiens) (UniProt Q9UK32)
[43] = system: Tyrosine-protein kinase ABL1 (Homo sapiens), P00519 [E255K]
[44] = molecular target: Aurora kinase A (Homo sapiens) (UniProt O14965)
[45] = molecular target: Serine/threonine-protein kinase pim-1 (Homo sapiens) (UniProt P11309)
Chain of Serine/threonine-protein kinase pim-1 (Homo sapiens) (P11309 whole entry, looked up): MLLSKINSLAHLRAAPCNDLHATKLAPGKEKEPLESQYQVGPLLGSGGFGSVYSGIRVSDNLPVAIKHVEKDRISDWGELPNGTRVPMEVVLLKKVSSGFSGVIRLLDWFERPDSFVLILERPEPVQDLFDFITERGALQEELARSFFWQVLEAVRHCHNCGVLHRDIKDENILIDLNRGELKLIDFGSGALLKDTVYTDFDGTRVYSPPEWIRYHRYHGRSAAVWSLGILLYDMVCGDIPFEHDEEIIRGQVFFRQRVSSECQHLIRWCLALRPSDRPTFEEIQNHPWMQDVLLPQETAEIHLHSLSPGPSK

## CSc1cccnc1N1CCN(Cc2nc3ccccc3[nH]2)CC1 [A-769]
[1]
  residual activity: 100%
[2]
  residual activity: 88%
[3]
  residual activity: 100%
[4]
  residual activity: 31%
[5]
  residual activity: 84%
[6]
  residual activity: 100%
[7]
  residual activity: 100%
[8]
  residual activity: 100%
[9]
  residual activity: 100%
[10]
  residual activity: 77%
[11]
  residual activity: 100%
[12]
  residual activity: 100%
[13]
  residual activity: 100%
[14]
  residual activity: 94%
[15]
  residual activity: 76%
[16]
  residual activity: 92%
[17]
  residual activity: 100%
[18]
  residual activity: 71%
[19]
  residual activity: 92%
[20]
  residual activity: 78%
[21]
  residual activity: 81%
[22]
  residual activity: 98%
[23]
  residual activity: 100%
[24]
  residual activity: 100%
[25]
  residual activity: 100%
[26]
  residual activity: 100%
[27]
  residual activity: 82%
[28]
  residual activity: 99%
[29]
  residual activity: 100%
[30]
  residual activity: 78%
[31]
  residual activity: 100%
[32]
  residual activity: 93%
[33]
  residual activity: 93%
[34]
  residual activity: 100%
[35]
  residual activity: 83%
[36]
  residual activity: 100%
[37]
  residual activity: 99%
[38]
  residual activity: 100%
[39]
  residual activity: 81%
[40]
  residual activity: 77%
[41]
  residual activity: 100%
[42]
  residual activity: 81%
[43]
  residual activity: 67%
[44]
  residual activity: 74%
[45]
  residual activity: 100%

## c1ccc(N2CCN(Cc3nc4ccccc4[nH]3)CC2)nc1 [ABT-724]
[1]
  residual activity: 99%
[2]
  residual activity: 100%
[3]
  residual activity: 88%
[4]
  residual activity: 67%
[5]
  residual activity: 100%
[6]
  residual activity: 100%
[7]
  residual activity: 100%
[8]
  residual activity: 100%
[9]
  residual activity: 100%
[10]
  residual activity: 100%
[11]
  residual activity: 100%
[12]
  residual activity: 95%
[13]
  residual activity: 100%
[14]
  residual activity: 100%
[15]
  residual activity: 100%
[16]
  residual activity: 100%
[17]
  residual activity: 100%
[18]
  residual activity: 100%
[19]
  residual activity: 91%
[20]
  residual activity: 93%
[21]
  residual activity: 100%
[22]
  residual activity: 91%
[23]
  residual activity: 91%
[24]
  residual activity: 100%
[25]
  residual activity: 100%
[26]
  residual activity: 100%
[27]
  residual activity: 100%
[28]
  residual activity: 100%
[29]
  residual activity: 98%
[30]
  residual activity: 100%
[31]
  residual activity: 86%
[32]
  residual activity: 100%
[33]
  residual activity: 100%
[34]
  residual activity: 100%
[35]
  residual activity: 100%
[36]
  residual activity: 100%
[37]
  residual activity: 98%
[38]
  residual activity: 100%
[39]
  residual activity: 86%
[40]
  residual activity: 78%
[41]
  residual activity: 87%
[42]
  residual activity: 100%
[43]
  residual activity: 100%
[44]
  residual activity: 89%
[45]
  residual activity: 90%
